In PMC5537347, “A short D-enantiomeric antimicrobial peptide with potent immunomodulatory and antibiofilm activity against multidrug-resistant Pseudomonas aeruginosa and Acinetobacter baumannii” (Scientific Reports, 2017):
Where two headings read alike, the source gives them in different places.

Columns and labels:
[1] = system: colistin-resistant P. aeruginosa 1109; assay: C. elegans infection model (bacterial burden and survival); type: in vivo, Caenorhabditis elegans
Procedure: (§1) (A) Evaluation of toxicity of peptides in Caenorhabditis elegans. C. elegans strain glp-4;sek 1 was grown for four days in the presence of peptides at different concentrations. Worms were monitored daily and the live worms were counted. Results are expressed as a Kaplan-Meier survival curve. (B) Evaluation of antimicrobial activity of peptides to reduce the bacterial CFU inside infected Caenorhabditis elegans. […] After treatment, worms were lysed and bacteria were counted. […] Results are expressed as means from three biological replicates ± standard deviation. (C) Efficacy of peptides in a Caenorhabditis elegans model of bacterial infection. […] Worms were monitored daily and the live worms were counted. Results are expressed as a Kaplan-Meier survival curve. C. elegans receiving no treatment served as a negative control.
(§2) Infection and treatment of C. elegans was done, as described previously, with the following modifications, [53], [54]. […] After infection, worms were collected and washed with PBS three times. Worms (~30 per sample) were transferred either to microcentrifuge tubes (for survival assessment) or 96-well plates (for bacterial CFU determination). […] Untreated worms served as a negative control. To assess the survival of infected C. elegans, worms were assessed for viability (live worms are sinusoidal with movement, whereas dead worms are rigid rods). In order to assess the bacterial load in worms, worms were first washed three times with PBS. They were subsequently lysed by addition of 200 mg of 1.0-mm silicon carbide particles (Biospec Products, Bartlesville, OK) to each tube and vortexing for one minute. Bacteria were plated onto TSA plates containing 100 µg/ml ampicillin to permit the selective growth of P. aeruginosa and A. baumannii over Escherichia coli OP50.

[2] = system: A. baumannii ATCC BAA-1605; assay: as above; type: in vivo, Caenorhabditis elegans; details: 8 × MIC
Procedure: as §1, §2

P. aeruginosa PAO1 = assay: as above; type: in vivo, Caenorhabditis elegans; details: 8 × MIC
Procedure: as §1, §2

A. baumannii = type: cell-based
Source text: (§4) The broth microdilution technique was utilized to assess the MIC of designed peptides according to the guidelines of the Clinical and Laboratory Standards Institute (CLSI)[37].

[3] = system: P. aeruginosa PAO1 biofilm; assay: Disruption of established biofilms, microtiter dish crystal violet assay; type: cell-based; details: mature (24 hour) biofilm, 24 hours at 37 °C, crystal violet OD 595 nm
Procedure: Figure 1 Efficacy of peptides on established biofilms of P. aeruginosa PAO1 and A. baumannii ATCC BAA-1605. […] After incubation, wells were washed and biofilms were stained with 0.5% (w/v) crystal violet for 30 minutes. The dye was solubilized with ethanol (95%) and the optical density (595 nm) of the biofilm mass was measured. Experiments were repeated twice independently and the average values are reported.
To examine the peptides’ ability to disrupt bacterial biofilms, the microtiter dish biofilm formation assay was employed[41]–[43].

TNF-α = assay: Anti-inflammatory effect on LPS-stimulated macrophages, ELISA; type: cell-based, murine; details: J774A.1 cells, LPS 150 ng/mL, six hours
Procedure: (§3) Figure 3 Ability of peptides to neutralize LPS and reduce inflammatory cytokines expression. (A) LPS binding activity of peptides. Peptides at different concentrations were incubated with one endotoxin unit (EU) of LPS at 37 °C for 30 minutes. […] The binding of peptides with LPS is expressed as percent change relative to the untreated samples. (B) Anti-inflammatory effect of peptides on LPS-stimulated macrophages. J774A.1 cells were stimulated with LPS (150 ng/mL final concentration) in the presence of different concentrations of peptides. Cells stimulated with LPS alone and untreated cells served as controls. Cells were incubated for six hours at 37 °C before the supernatant from each treatment group was collected. Detection of tumor necrosis factor-α (TNF-α) and interleukin-6 (IL-6) in supernatants was determined using ELISA. Cytokine levels are expressed as percent change relative to the LPS-stimulated control. Statistical analysis was calculated using one-way ANOVA, with post hoc Tukey’s multiple comparisons test. P < 0.05 was considered significant. One asterisk (*) indicates significant difference with the negative control.
To assess the anti-inflammatory effect of our peptides on LPS-stimulated macrophages, J774A.1 cells were seeded and incubated as described above (for toxicity assessment). Next, the cells were stimulated with LPS (150 ng/ml final concentration) in the presence of different concentrations of peptides (RR and D-RR4). Cells stimulated with LPS alone and untreated cells served as controls. Cells were incubated for six hours at 37 °C and the supernatant from each treatment was collected and stored at −20 °C until use. Tumor necrosis factor-α (TNF-α) and interleukin-6 (IL-6) present in the supernatant was quantified using ELISA, as described previously. Cytokine levels were presented as the percent change relative to the LPS-stimulated control, using triplicate samples for each treatment condition.

P. aeruginosa = type: cell-based
Source text: as §4

[4] = system: LPS-induced activation of the LAL enzyme (Limulus amoebocyte lysate); assay: Binding of peptides to lipopolysaccharide (LAL assay); type: biochemical; details: one EU of LPS, 37 °C, 30 minutes
Procedure: as §3
To determine the peptides’ ability to bind to LPS, a Limulus amoebocyte lysate (LAL) kit (Genscript, USA Inc.) was utilized, as described in previous reports. The peptides were dissolved in pyrogen-free water and serially diluted in the same solvent. The peptides were then incubated with one endotoxin unit (EU) of LPS at 37 °C for 30 minutes in order to permit the peptides to bind LPS. The reaction mixture (50 μL) was added to 50 μL of LAL reagent, and further incubated for 10 minutes. Next, 100 μL of LAL chromogenic substrate was added. The mixture was incubated at 37 °C for six minutes. The optical density (at 545 nm) was determined using a microplate reader. Colistin was used as a positive control. The binding of peptides with LPS was expressed as the percent change relative to the untreated control.

## Colistin [reference compound]
[1]; D-RR4 8 × MIC, colistin 1 × MIC, after 24 hours
  protection of infected worms (survival): failed to protect worms from death
[1]; in vivo
  reduction of bacterial burden (CFU) in infected worms: unable to significantly decrease bacterial burden
[2]
  reduction of bacterial burden (CFU) in infected worms: 96%
[2]; 36 hours
  worms remaining alive: remained alive
[2]; after 72 hours
  worms remaining alive: 80–85%
P. aeruginosa PAO1
  reduction of bacterial burden (CFU) in infected worms: 89%
P. aeruginosa PAO1; 24 and 36 hours
  protection of infected worms (survival): nearly complete protection
A. baumannii; strain ATCC 19606
  MIC: 0.125 µM
A. baumannii; strain ATCC BAA-747
  MIC: 0.25 µM
A. baumannii; strain ATCC BAA-1605
  MIC: 0.25 µM
A. baumannii; strain NR-9667
  MIC: 0.0625 µM
A. baumannii; strain NR-13374
  MIC: 0.125 µM
A. baumannii; strain NR-13375
  MIC: 0.125 µM
A. baumannii; strain NR-13382
  MIC: 0.5 µM
A. baumannii; strain NR-17777
  MIC: 0.5 µM
A. baumannii; strain NR-17778
  MIC: 0.0625 µM
A. baumannii; strain NR-17780
  MIC: 0.25 µM
A. baumannii; strain NR-17783
  MIC: 0.0625 µM
A. baumannii; strain NR-17784
  MIC: 0.0625 µM
A. baumannii; strain NR-17785
  MIC: 0.25 µM
A. baumannii; strain NR-17786
  MIC: 0.0625 µM
A. baumannii; strain NR-19298
  MIC: 0.25 µM
A. baumannii; strain NR-19299
  MIC: 0.25 µM
[3]; 4 × MIC
  biofilm mass disrupted: more than 10%
[3]; 8 × MIC
  biofilm mass disrupted: > 25%
[3]; 16 × MIC
  biofilm mass disrupted: > 28%
[3]; 32 × MIC
  biofilm mass disrupted: > 75%
TNF-α; 10 µM
  decrease of TNF-α production: > 95%
TNF-α; 20 µM
  decrease of TNF-α production: > 95%
P. aeruginosa; strain ATCC 9027
  MIC: 0.25 µM
P. aeruginosa; strain ATCC 9721
  MIC: 0.5 µM
P. aeruginosa; strain ATCC 10145
  MIC: 0.5 µM
P. aeruginosa; strain ATCC 15442
  MIC: 0.25 µM
P. aeruginosa; strain ATCC 25619
  MIC: 0.25 µM
P. aeruginosa; strain ATCC 27853
  MIC: 0.25 µM
P. aeruginosa; strain ATCC 35032
  MIC: 0.5 µM
P. aeruginosa; strain ATCC BAA-1744
  MIC: 0.5 µM
P. aeruginosa; strain PAO1
  MIC: 0.5 µM
[4]; 5 µM peptide
  inhibition of LPS-induced activation of the LAL enzyme: 51.2%
[4]; 10 µM peptide
  inhibition of LPS-induced activation of the LAL enzyme: 83.0%
[4]; 15 µM peptide
  inhibition of LPS-induced activation of the LAL enzyme: Complete inhibition
[4]; 20 µM peptide
  inhibition of LPS-induced activation of the LAL enzyme: Complete inhibition
